What was measured:
[1] = test system: MCF-7 cells; assay: CellTiter-Glo Luminescent Cell Viability Assay, MCF-7; assay type: cell-based, human; settings: for IC50: MCF-7 cells, 48 h, mean of three independent experiments
Procedure: The in vitro anti-proliferative activities of all the novel synthesized compounds were evaluated against HepG2 cells and MCF-7 cells by CellTiter-Glo® Luminescent Cell Viability Assay, using paclitaxel (a clinically used drug) as a positive control. Emodin (1) and compound 2 were also included for comparison.
HepG2 cells and MCF-7 cells were purchased from American Type Culture Collection (ATCC, Manassas, VA, USA). Cells were cultured in T75 flask (430641, Corning, New York, NY, USA), supplemented with high-glucose DMEM medium (Dulbecco’s modified Eagle’s medium, 11965-092, Gibco, New York, NY, USA) containing 10% Fetal bovine serum (FBS) and 1% penicillin (100 units/mL)-streptomycin (100 µg/mL) in a humidified incubator at 37 °C under 5% CO2 and 95% relative humidity (RH) atmosphere. The cells were harvested for metabolomics experiments using cell scrapers.
HepG2 cells and MCF-7 cells in 40 µL DMEM supplemented with 10% FBS were seeded at a density of 500 cells/well in 384-well cell culture plate (3570, Corning), respectively. After 24 h, the medium was substituted with fresh medium containing various sample solutions in DMSO (0.5%, v/v) at a dose range of 0.14–100 µM with 3-fold serial dilutions, and cells were cultured for another 48 h. Cells were cultured in medium without samples but 0.5% DMSO served as a control. All measurements were determined in triplicate for each treatment. After the sample treatment for 48 h, 20 µL CellTiter-Glo (G7573, Promega, Fitchburg, WI, USA) was added to each well containing cells and the contents were mixed for 2 min on an orbital shaker to induce cell lysis. The plates were then incubated at room temperature for 20 min to stabilize the luminescent signal. The luminescence was recorded on an Envision 2014 (Perkin Elmer, Waltham, MA, UAS). The IC50 values represented the samples’ concentrations required to inhibit 50% of cell proliferation and were calculated from a calibration curve by linear regression using GraphPad Prism 7.0 software (GraphPad Software, San Diego, CA, USA).

[2] = test system: L02 cells; assay: Cytotoxic activity against human normal liver cells (L02); assay type: cell-based
[3] = test system: Bcl-2; assay: Western blot, Bcl-2; assay type: cell-based, human; settings: 48 h
Procedure: (§1) Total cell lysates from cultured HepG2 cells treated with different concentrations of compound 7a for 48 h were obtained by lysing the cells in ice-cold RIPA buffer (1 PBS, 1% NP-40, 0.5% sodium deoxycholate and 0.1% SDS) containing […] PMSF, 5 mg/mL aprotinin, 5 mg/mL leupeptin, 5 mg/mL pepstatin and […] NaF. After centrifugation at 12,000 rpm for 10 min, the protein in the supernatant was quantified by the Bradford method (BIO-RAD, Hercules, CA, USA) using a Multimode Varioscan instrument (Thermo Fischer Scientific, Waltham, MA, USA). Twenty micrograms of protein per lane was applied in 12% SDS polyacrylamide gel. After electrophoresis, the protein was transferred to a polyvinylidine difluoride membrane (Amersham Biosciences, Marlborough, MA, USA). The membrane was blocked at room temperature for 2 h in TBST containing 5% blocking powder (Santa Cruz, Dallas, TX, USA). The membrane was washed with TBST for 5 min, and the primary antibody was added and incubated at 4 °C overnight (O/N). Bax (5023, CST, Danvers, MA, USA), Bcl-2 (15071, CST), cytochrome c (4280, CST), procaspase-9 (AB138412, Abcam, Cambridge, MA, USA), procaspase-3 (AB32150, Abcam), caspase-3 (66470-2-lg, Proteintech Group, Rosemont, IL, USA) and GAPDH (AB8245, Abcam) antibodies were employed. After three TBST washes, the membrane was incubated with the corresponding horseradish peroxidase-labeled secondary antibody (1:5000) (Santa Cruz) at room temperature for 2 h. Membranes were washed with TBST for 15 min five times and the protein blots were visualized with chemiluminescence reagent (Thermo Fischer Scientific Ltd.). The X-ray films were developed with a developer and fixed with fixer solution. The grey levels were analyzed using ImageQuant LAS 4000 system (GE, Marlborough, MA, USA).

[4] = test system: cytochrome c; assay: Western blot, cytochrome c; assay type: cell-based, human; settings: 48 h
Procedure: as §1

[5] = test system: procaspase-9; assay: Western blot, procaspase-9; assay type: cell-based, human; settings: 48 h
Procedure: as §1

[6] = test system: HepG2 cells; assay: Cell cycle analysis, PI staining flow cytometry; assay type: cell-based, human; design: Dip G1 (G1 phase cells) / Dip S (S phase cell population): dose or concentration left out as unconfirmed; settings: for Cell cycle distribution, G0/G1 / Cell cycle distribution, G2/M / Cell cycle distribution, S: mean ± SD of three experiments
Procedure: To further examine how compound 7a suppressed the growth of HepG2 cells, the effect of compound 7a on cell cycle distribution with different concentrations was investigated by flow cytometric analysis following staining the DNA with propidium iodide (PI).
The HepG2 cells were treated with indicated concentrations of compound 7a. After incubation for 48 h, cells were washed twice with ice-cold PBS, fixed and permeabilized with ice cold 70% ethanol at −20 °C overnight. The cells were treated with 100 μg/mL RNase A at 37 °C for 30min, then washed with ice-cold PBS and finally stained with 1mg/mL PI in the dark at 4 °C for 30 min. The cellular DNA content for the cell cycle distribution analysis was performed with the system software (CellQuest; BD Biosciences), plotting at least 30,000 events per sample. The percentage of cells in the G1, S and G2 phases of the cell cycle were determined using the ModFit LT version 5.0 software package (Verity Software, Topsham, ME, USA).

[7] = HepG2, 48 h, representative plot

Cc1cc(O)c2c(c1)C(=O)c1cc(OCCCOC(=O)[C@@H](C)N)cc(O)c1C2=O.O=C(O)C(F)(F)F [Compound 7a, (R)-1-(3-(4,5-Dihydroxy-7-methyl-9,10-dioxo-9,10-dihydroanthracen-2-yloxy)propoxy)-1-oxopropan-2-aminium 2,2,2-trifluoroacetate]
IC50 ([1]; Homo sapiens, MCF7, 48 h): 5.92 ± 0.36 µM | Selectivity Index MCF-7 ([1]; IC50 on normal cells (L02)/IC50 on cancer cells (MCF-7)): 2.36 | IC50 [1]: 6.47 ± 0.18 µM | IC50 ([2]; Homo sapiens, L02, human normal liver L02 cells): 14 ± 0.27 µM | IC50 ([2]; human normal liver L02 cells): 18.5 ± 0.19 µM | Relative expression level, Bcl-2 ([3]; HepG2, 2.5 μM): 0.685 ± 0.025 | Relative expression level, Bcl-2 ([3]; HepG2, 5 μM): 0.312 ± 0.012 | Relative expression level, Bcl-2 ([3]; HepG2, 10 μM): 0.268 ± 0.022 | Relative expression level, cytochrome c ([4]; HepG2, 2.5 μM): 1.407 ± 0.015 | Relative expression level, cytochrome c ([4]; HepG2, 5 μM): 1.663 ± 0.110 | Relative expression level, cytochrome c ([4]; HepG2, 10 μM): 2.220 ± 0.387 | Relative expression level, procaspase-9 ([5]; HepG2, 2.5 μM): 0.600 ± 0.082 | Relative expression level, procaspase-9 ([5]; HepG2, 5 μM): 0.297 ± 0.058 | Relative expression level, procaspase-9 ([5]; HepG2, 10 μM): 0.223 ± 0.029 | Cell cycle distribution, G0/G1 ([6]; HepG2, 0.25 μM): 44.18 ± 1.79% | Cell cycle distribution, G2/M ([6]; HepG2, 0.25 μM): 17.55 ± 0.90% | Cell cycle distribution, S ([6]; HepG2, 0.25 μM): 38.25 ± 1.65% | Cell cycle distribution, G0/G1 ([6]; HepG2, 0.5 μM): 56.49 ± 1.40% | Cell cycle distribution, G2/M ([6]; HepG2, 0.5 μM): 24.81 ± 1.79% | Cell cycle distribution, S ([6]; HepG2, 0.5 μM): 19.21 ± 1.33% | Cell cycle distribution, G0/G1 ([6]; HepG2, 1 μM): 63.96 ± 2.42% | Cell cycle distribution, G2/M ([6]; HepG2, 1 μM): 22.22 ±1.16% | Cell cycle distribution, S ([6]; HepG2, 1 μM): 14.52 ± 1.43% | Dip G1 (G1 phase cells) [6, 7]: 63.37% | Dip S (S phase cell population) [6, 7]: 14.60%

— publication PMC6429262, “Design and Synthesis of Novel Anti-Proliferative Emodin Derivatives and Studies on their Cell Cycle Arrest, Apoptosis Pathway and Migration” (Molecules, 2019)
